According to US20260209223A1, “FGFR3 INHIBITOR COMPOUNDS” (TYRA BIOSCIENCES, INC., priority 2022, published 2026):

How the values were obtained:
FGFR1 = target: T1, FGFR1 (Homo sapiens, UniProt P11362); assay: Kinase binding assay (Kd), kinase-tagged T7 phage, affinity beads, qPCR; conditions: in vitro binding assay, 11-point 3-fold dilution series
T1 construct: made in house; host or cells: E. coli (BL21-derived) infected with T7 phage
Experimental: (§1) Kinase-tagged T7 phage strains were prepared in an E. coli host derived from the BL21 strain. E. coli were grown to log-phase and infected with T7 phage and incubated with shaking at 32° C. until lysis. The lysates were centrifuged and filtered to remove cell debris. Streptavidin-coated magnetic beads were treated with biotinylated small molecule ligands for 30 minutes at room temperature to generate affinity resins for kinase assays. The liganded beads were blocked with excess biotin and washed with blocking buffer SeaBlock (Pierce), 1% BSA, 0.05% Tween 20, 1 mM DTT to remove unbound ligand and to reduce non-specific binding. Binding reactions were assembled by combining kinases, liganded affinity beads, and test compounds in 1× binding buffer (20% SeaBlock, 0.17×PBS, 0.05% Tween 20, 6 mM DTT).
(§2) Test compounds were prepared as 111× stocks in 100% DMSO. Kds were determined using an 11-point 3-fold compound dilution series with three DMSO control points. All compounds for Kd measurements are distributed by acoustic transfer (non-contact dispensing) in 100% DMSO. The compounds were then diluted directly into the assays such that the final concentration of DMSO was 0.9%. All reactions performed in polypropylene 384-well plate. Each was a final volume of 0.02 ml. The assay plates were incubated at room temperature with shaking for 1 hour and the affinity beads were washed with wash buffer (1×PBS, 0.05% Tween 20). The beads were then re-suspended in elution buffer (1×PBS, 0.05% Tween 20, 0.5 μM non-biotinylated affinity ligand) and incubated at room temperature with shaking for 30 minutes. The kinase concentration in the eluates was measured by qPCR.
(§3) Binding constants were calculated with a standard dose-response curve using the Hill equation: […]
(§4) The Hill Slope was set to −1. Curves were fitted using a non-linear least square fit with the Levenberg-Marquardt algorithm.

FGFR2 = target: T2, FGFR2 (Homo sapiens, UniProt P21802); assay: as above; conditions: in vitro binding assay, 11-point 3-fold dilution series
T2 construct: made in house; host or cells: E. coli (BL21-derived) infected with T7 phage
Experimental: as §1, §2, §3, §4

FGFR3 = target: T3, FGFR3 (Homo sapiens, UniProt P22607); assay: as above; conditions: in vitro binding assay, 11-point 3-fold dilution series
T3 construct: made in house; host or cells: E. coli (BL21-derived) infected with T7 phage
Experimental: as §1, §2, §3, §4

FGFR3 (V555M) = target: T4, FGFR3 (V555M) (Homo sapiens, UniProt P22607, V555M); assay: as above; conditions: in vitro binding assay, 11-point 3-fold dilution series
T4 construct: made in house; host or cells: E. coli (BL21-derived) infected with T7 phage
Experimental: as §1, §2, §3, §4

FGFR4 = target: T5, FGFR4 (Homo sapiens, UniProt P22455); assay: as above; conditions: in vitro binding assay, 11-point 3-fold dilution series
T5 construct: made in house; host or cells: E. coli (BL21-derived) infected with T7 phage
Experimental: as §1, §2, §3, §4

Ba/F3 BCR-FGFR1 = target: T6, Ba/F3 BCR-FGFR1 (Homo sapiens, UniProt P11362); assay: Ba/F3 cell viability assay (CellTiter-Glo 2.0); format: cell-based; conditions: Ba/F3 cell data, BCR-FGFR1 fusion, 48 hours
T6 construct: BCR (fusion partner); host or cells: Ba/F3; the other entry of the earlier key: BCR (P11274, Breakpoint cluster region protein)

Ba/F3 BCR-FGFR2 = target: T7, Ba/F3 BCR-FGFR2 (Homo sapiens, UniProt P21802); assay: Ba/F3 cell viability assay (CellTiter-Glo 2.0); format: cell-based; conditions: Ba/F3 cell data, BCR-FGFR2 fusion, 48 hours
T7 construct: BCR (fusion partner); host or cells: Ba/F3; the other entry of the earlier key: BCR (P11274, Breakpoint cluster region protein)

Ba/F3 FGFR3-BAIAP2L1 = target: T8, Ba/F3 FGFR3-BAIAP2L1 (Homo sapiens, UniProt P22607); assay: Ba/F3 cell viability assay (CellTiter-Glo 2.0); format: cell-based; conditions: Ba/F3 cell data, FGFR3-BAIAP2L1 fusion, 48 hours
T8 construct: BAIAP2L1 (fusion partner, Q9UHR4 if human); host or cells: Ba/F3; the other entry of the earlier key: BAIAP2L1 (Q9UHR4, BAR/IMD domain-containing adapter protein 2-like 1)

Ba/F3 ETV5-FGFR4 = target: T9, Ba/F3 ETV5-FGFR4 (Homo sapiens, UniProt P22455); assay: Ba/F3 cell viability assay (CellTiter-Glo 2.0); format: cell-based; conditions: Ba/F3 cell data, ETV5-FGFR4 fusion, 48 hours
T9 construct: host or cells: Ba/F3; the other entry of the earlier key: ETV5 (P41161, ETS translocation variant 5)
Source text: Experimental Purpose: Recombinant kinase fusions are transduced into parental Ba/F3, which becomes dependent upon this constitutive kinase activity for IL3-independent survival. Inhibition of kinase activity leads to cell death, which is monitored using CellTiter-Glo® 2.0 (Promega) which measures intracellular ATP concentration that in turn serves as a marker for viability. BCR-FGFR1 Ba/F3, BCR-FGFR2 and FGFR3-BAIAP2L1 Ba/F3 were obtained from Advanced Cellular Dynamics (Seattle, WA). ETV6-FGFR4 was obtained from Kyinno (Waltham, MA).
Cell Viability Assay Procedure: Cell Titer-Glo® 2.0 Luminescent cell viability assay reagent was purchased from Promega (Madison, WI). Ba/F3 cell lines were cultured in RPMI1640 media supplemented with 10% fetal bovine serum. Cultures were maintained at 37° C. in a humidified atmosphere of 5% CO2 and 95% air.
Cells were plated in 96-well clear bottom/white plates (Corning #3903) at 10,000 cells/well in 100 μl of media, incubated overnight. The next day, test compound DMSO stock solutions were made at 10 mM and 2 μM final concentration. Compounds were then added to cells in a 9-dose, 10-fold dilution series starting at 30 μM with an HP 300e Digital Dispenser (each dose was applied in triplicate). DMSO was backfilled to each well up to 301 nL total volume of test compound+DMSO, and a total of 301 nL DMSO was added to a control/no test compound well in triplicate. The cells in cell culture plates were incubated with the compounds at 37° C. and 5% CO2 for 48 hours. Then 50 μl of Cell Titer Glo 2.0 reagent was added to each well of the cell culture plates. The contents were covered from light and mixed on an orbital shaker at room temperature for 10 min. Luminescence was recorded by a Synergy H1 Microplate Reader (Biotek, Winooski, VT). Cells were assessed as a percentage of DMSO only treated control cells. Curves were plotted and IC50 values were calculated using the GraphPad Prism 8 program based on a sigmoidal dose-response equation (4 parameter).

T5 sequence (P22455 22-802): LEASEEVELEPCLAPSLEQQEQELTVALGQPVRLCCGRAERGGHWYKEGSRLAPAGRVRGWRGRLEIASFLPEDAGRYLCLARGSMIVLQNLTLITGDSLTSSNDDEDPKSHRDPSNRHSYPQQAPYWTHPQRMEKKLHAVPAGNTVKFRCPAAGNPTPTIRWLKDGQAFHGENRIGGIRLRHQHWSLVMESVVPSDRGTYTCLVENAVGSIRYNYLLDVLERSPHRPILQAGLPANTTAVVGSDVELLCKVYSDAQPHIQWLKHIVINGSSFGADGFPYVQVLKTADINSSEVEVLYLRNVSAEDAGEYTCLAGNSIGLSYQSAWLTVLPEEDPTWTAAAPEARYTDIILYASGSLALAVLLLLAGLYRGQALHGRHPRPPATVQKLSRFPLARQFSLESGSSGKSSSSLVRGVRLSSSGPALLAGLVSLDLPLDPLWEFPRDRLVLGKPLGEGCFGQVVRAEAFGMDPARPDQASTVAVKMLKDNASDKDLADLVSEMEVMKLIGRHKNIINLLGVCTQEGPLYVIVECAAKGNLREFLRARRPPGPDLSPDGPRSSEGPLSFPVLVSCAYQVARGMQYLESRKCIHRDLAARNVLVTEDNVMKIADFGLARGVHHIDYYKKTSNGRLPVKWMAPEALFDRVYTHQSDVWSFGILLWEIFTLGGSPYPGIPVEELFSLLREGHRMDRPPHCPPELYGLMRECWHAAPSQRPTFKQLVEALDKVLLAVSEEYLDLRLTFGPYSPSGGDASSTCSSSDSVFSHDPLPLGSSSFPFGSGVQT
T7 sequence (P21802 481-770 limits assumed): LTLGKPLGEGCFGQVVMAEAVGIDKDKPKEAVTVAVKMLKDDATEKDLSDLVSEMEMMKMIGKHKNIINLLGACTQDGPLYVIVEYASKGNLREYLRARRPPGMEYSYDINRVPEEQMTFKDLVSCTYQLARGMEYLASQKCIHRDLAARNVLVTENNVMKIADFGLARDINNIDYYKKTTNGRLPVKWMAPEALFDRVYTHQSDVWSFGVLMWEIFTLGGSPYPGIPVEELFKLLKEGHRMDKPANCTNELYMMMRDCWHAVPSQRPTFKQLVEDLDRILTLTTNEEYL
T2 sequence (P21802 22-821): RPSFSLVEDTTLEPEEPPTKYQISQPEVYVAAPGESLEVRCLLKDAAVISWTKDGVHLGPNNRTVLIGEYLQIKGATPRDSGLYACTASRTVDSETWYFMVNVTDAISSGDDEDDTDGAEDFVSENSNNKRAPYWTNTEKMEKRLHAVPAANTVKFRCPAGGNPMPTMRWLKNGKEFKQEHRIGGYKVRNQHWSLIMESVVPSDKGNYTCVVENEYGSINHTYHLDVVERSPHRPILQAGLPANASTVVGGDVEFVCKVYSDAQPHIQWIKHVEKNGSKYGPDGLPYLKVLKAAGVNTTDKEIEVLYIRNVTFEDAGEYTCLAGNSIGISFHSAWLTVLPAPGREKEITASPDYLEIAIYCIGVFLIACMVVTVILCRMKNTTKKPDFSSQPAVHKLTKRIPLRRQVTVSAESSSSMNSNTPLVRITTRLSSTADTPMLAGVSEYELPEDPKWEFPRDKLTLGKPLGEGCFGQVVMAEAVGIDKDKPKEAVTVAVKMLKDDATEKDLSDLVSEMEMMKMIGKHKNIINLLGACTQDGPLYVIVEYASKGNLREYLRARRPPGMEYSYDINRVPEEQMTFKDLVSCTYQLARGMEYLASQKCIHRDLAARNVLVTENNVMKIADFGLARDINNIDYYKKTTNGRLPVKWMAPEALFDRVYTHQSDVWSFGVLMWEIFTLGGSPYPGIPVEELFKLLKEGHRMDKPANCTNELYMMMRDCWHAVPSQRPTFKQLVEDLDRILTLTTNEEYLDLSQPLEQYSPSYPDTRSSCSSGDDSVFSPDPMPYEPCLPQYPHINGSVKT
T9 sequence (P22455 467-755 limits assumed): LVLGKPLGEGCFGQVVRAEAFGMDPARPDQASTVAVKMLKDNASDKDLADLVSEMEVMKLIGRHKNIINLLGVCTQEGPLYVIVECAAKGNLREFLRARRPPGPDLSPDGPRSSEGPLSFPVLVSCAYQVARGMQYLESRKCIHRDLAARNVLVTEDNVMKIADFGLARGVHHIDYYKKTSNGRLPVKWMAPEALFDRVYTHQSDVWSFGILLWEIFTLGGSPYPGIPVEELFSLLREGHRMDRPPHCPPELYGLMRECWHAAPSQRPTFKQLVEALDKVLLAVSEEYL
T4 sequence (P22607 23-806 V555M): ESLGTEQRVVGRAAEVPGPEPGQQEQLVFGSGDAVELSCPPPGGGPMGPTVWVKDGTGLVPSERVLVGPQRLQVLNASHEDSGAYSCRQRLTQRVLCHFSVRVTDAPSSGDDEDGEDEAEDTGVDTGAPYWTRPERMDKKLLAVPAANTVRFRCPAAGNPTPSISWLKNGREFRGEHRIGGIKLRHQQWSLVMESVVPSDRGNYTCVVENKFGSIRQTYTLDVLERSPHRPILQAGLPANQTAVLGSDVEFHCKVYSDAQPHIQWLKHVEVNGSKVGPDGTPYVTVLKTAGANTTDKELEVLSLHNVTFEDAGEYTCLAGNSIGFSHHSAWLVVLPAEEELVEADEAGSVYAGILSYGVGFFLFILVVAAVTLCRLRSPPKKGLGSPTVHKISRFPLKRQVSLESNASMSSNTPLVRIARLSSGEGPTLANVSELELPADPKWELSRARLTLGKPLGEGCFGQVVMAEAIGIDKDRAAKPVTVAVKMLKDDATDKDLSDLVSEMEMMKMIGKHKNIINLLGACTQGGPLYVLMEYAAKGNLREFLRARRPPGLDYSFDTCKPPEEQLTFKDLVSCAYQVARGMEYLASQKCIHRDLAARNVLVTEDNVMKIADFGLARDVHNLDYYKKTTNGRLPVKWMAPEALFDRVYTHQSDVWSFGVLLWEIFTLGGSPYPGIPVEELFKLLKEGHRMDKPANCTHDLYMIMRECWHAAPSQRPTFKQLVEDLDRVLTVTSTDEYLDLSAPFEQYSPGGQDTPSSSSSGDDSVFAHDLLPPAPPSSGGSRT
T6 sequence (P11362 478-767 limits assumed): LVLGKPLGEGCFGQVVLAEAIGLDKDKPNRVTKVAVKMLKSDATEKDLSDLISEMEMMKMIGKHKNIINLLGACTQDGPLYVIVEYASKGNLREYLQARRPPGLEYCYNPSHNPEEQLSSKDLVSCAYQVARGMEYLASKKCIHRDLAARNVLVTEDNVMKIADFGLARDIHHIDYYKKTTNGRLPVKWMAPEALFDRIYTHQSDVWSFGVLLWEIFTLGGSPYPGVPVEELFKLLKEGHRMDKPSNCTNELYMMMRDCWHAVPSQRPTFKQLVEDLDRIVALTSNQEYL
T3 sequence (P22607 23-806): as the sequence (P22607 23-806 V555M) above, with M533V counted along it
T1 sequence (P11362 22-822): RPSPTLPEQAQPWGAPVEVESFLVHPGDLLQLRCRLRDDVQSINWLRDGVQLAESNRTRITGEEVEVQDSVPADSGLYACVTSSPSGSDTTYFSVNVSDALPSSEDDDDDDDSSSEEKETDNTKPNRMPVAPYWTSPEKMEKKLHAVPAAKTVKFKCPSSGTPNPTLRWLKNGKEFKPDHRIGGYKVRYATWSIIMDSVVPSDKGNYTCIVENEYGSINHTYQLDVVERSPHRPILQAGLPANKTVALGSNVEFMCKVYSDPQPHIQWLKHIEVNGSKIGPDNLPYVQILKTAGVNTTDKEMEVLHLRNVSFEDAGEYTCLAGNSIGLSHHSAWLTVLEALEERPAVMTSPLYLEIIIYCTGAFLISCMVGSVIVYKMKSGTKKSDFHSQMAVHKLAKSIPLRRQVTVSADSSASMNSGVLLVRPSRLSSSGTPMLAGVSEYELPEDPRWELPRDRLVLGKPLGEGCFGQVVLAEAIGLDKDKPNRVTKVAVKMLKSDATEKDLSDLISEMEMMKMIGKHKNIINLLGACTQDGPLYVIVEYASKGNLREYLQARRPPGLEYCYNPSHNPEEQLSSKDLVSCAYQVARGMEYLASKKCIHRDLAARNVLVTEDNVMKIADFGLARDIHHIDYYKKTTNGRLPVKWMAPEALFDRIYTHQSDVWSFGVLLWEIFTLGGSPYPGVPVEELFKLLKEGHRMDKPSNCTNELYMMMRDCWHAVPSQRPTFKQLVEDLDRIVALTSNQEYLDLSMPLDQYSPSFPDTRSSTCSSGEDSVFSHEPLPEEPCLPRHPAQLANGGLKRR
T8 sequence (P22607 397-758 limits assumed): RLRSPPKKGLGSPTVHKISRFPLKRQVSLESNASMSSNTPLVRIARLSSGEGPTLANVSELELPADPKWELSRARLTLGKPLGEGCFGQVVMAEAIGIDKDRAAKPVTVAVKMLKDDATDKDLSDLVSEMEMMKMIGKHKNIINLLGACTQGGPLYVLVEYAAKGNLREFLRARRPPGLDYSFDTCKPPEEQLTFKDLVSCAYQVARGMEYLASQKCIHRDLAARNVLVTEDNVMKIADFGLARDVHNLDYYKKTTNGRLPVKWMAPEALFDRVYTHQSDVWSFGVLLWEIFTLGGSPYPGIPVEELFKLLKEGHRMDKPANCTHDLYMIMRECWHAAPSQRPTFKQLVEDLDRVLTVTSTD

| Kd (FGFR1) [nM] | Kd (FGFR2) [nM] | Kd (FGFR3) [nM] | Kd (FGFR3 (V555M)) [nM] | Kd (FGFR4) [nM] | SMILES | Kd (Ba/F3 BCR-FGFR1) [nM] | Kd (Ba/F3 BCR-FGFR2) [nM] | Kd (Ba/F3 FGFR3-BAIAP2L1) [nM] | Kd (Ba/F3 ETV5-FGFR4) [nM] |
| --- | --- | --- | --- | --- | --- | --- | --- | --- | --- |
| 0.1 to 100 | 0.1 to 100 | 0.1 to 100 | 0.1 to 100 | 0.1 to 100 | COC1(C(=O)N2CCC(n3nnc(-c4cc(OC(CO)c5ccccn5)c5c(C#N)cnn5c4)c3C)CC2)CN(C(=O)/C=C/CN(C)C)C1 (stereo not drawn) [Example 23, (E)-6-(1-(1-(1-(4-(dimethylamino)but-2-enoyl)-3-methoxyazetidine-3-carbonyl)piperidin-4-yl)-5-methyl-1H-1,2,3-triazol-4-yl)-4-(2-hydroxy-1-(pyridin-2-yl)ethoxy)pyrazolo[1,5-a]pyridine-3-carbonitrile] | ≥ 1000 | ≥ 1000 | 250 to 1000 | ≥ 1000 |
| 0.1 to 100 | 0.1 to 100 | 0.1 to 100 | 0.1 to 100 | 0.1 to 100 | C=CC(=O)N1CCC2(CC1)CC(n1ncc(-c3cc(OC(CO)c4cncc5ccccc45)c4c(C#N)cnn4c3)c1C)C2 (stereo not drawn) [Example 15, 6-(1-(7-acryloyl-7-azaspiro[3.5]nonan-2-yl)-5-methyl-1H-pyrazol-4-yl)-4-(2-hydroxy-1-(isoquinolin-4-yl)ethoxy)pyrazolo[1,5-a]pyridine-3-carbonitrile] | 100 to 250 | 100 to 250 | 0.1 to 100 | 250 to 1000 |
| 250 to 1000 | 250 to 1000 | 100 to 250 | 250 to 1000 | ≥ 1000 | C=CC(=O)N1CCC2(CC1)CC(n1nnc(-c3cc(O[C@@H](CO)c4ccc(F)cn4)c4c(C#N)cnn4c3)c1C)C2 [Example 12, (R)-6-(1-(7-acryloyl-7-azaspiro[3.5]nonan-2-yl)-5-methyl-1H-1,2,3-triazol-4-yl)-4-(1-(5-fluoropyridin-2-yl)-2-hydroxyethoxy)pyrazolo[1,5-a]pyridine-3-carbonitrile] | ≥ 1000 | ≥ 1000 | 250 to 1000 | ≥ 1000 |
| ≥ 1000 | 250 to 1000 | 100 to 250 | 250 to 1000 | ≥ 1000 | C=CC(=O)N1CC(OC)(C(=O)N2CCC(n3nnc(-c4cc(O[C@@H](CO)c5ccccn5)c5c(C#N)cnn5c4)c3C)CC2)C1 [Example 21, (R)-6-(1-(1-(1-acryloyl-3-methoxyazetidine-3-carbonyl)piperidin-4-yl)-5-methyl-1H-1,2,3-triazol-4-yl)-4-(2-hydroxy-1-(pyridin-2-yl)ethoxy)pyrazolo[1,5-a]pyridine-3-carbonitrile] | ≥ 1000 | ≥ 1000 | ≥ 1000 | ≥ 1000 |
